Data taken from ChEMBL document CHEMBL1201861, “Genomics of Drug Sensitity in Cancer screening data, Wellcome Trust Sanger Institute”.

Assays:
Assay in all cases: cells
Type in all cases: functional, cell-based, Homo sapiens
HCC1419 = system: HCC1419;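 also: growth inhibition of human HCC1419 cells, read out as cell viability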
Description: SANGER: Inhibition of human HCC1419 cell growth in a cell viability assay.

MC-IXC = system: MC-IXC;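 also: growth inhibition of MC-IXC cells, read out with a cell viability assay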
Description: SANGER: Inhibition of human MC-IXC cell growth in a cell viability assay.

RVH-421 = system: RVH-421
Description: SANGER: Inhibition of human RVH-421 cell growth in a cell viability assay.

639-V = system: 639-V;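 also: growth inhibition of 639-V cells, read out with a cell viability assay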
Description: SANGER: Inhibition of human 639-V cell growth in a cell viability assay.

CAL-120 = system: CAL-120;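 also: cell growth inhibition, read out as cell viability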
Description: SANGER: Inhibition of human CAL-120 cell growth in a cell viability assay.

MDA-MB-453 = system: MDA-MB-453
Description: SANGER: Inhibition of human MDA-MB-453 cell growth in a cell viability assay.

TYK-nu = system: TYK-nu;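 also: growth inhibition of human TYK-nu cells, read out by a cell viability assay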
Description: SANGER: Inhibition of human TYK-nu cell growth in a cell viability assay.

SW1990 = system: SW1990;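 also: cell growth inhibition determined with a viability assay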
Description: SANGER: Inhibition of human SW1990 cell growth in a cell viability assay.

PANC-03-27 = system: PANC-03-27
Description: SANGER: Inhibition of human PANC-03-27 cell growth in a cell viability assay.

KYSE-140 = system: KYSE-140;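 also: cell viability assay measuring growth inhibition in human KYSE-140 cells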
Description: SANGER: Inhibition of human KYSE-140 cell growth in a cell viability assay.

T-24 = system: T-24;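 also: growth inhibition of T-24 cells, read out with a cell viability assay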
Description: SANGER: Inhibition of human T-24 cell growth in a cell viability assay.

EGI-1 = system: EGI-1;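 also: cell viability readout used to gauge growth inhibition of EGI-1 cells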
Description: SANGER: Inhibition of human EGI-1 cell growth in a cell viability assay.

A2058 = system: A2058;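 also: reduction of A2058 cell growth, read out with a viability assay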
Description: SANGER: Inhibition of human A2058 cell growth in a cell viability assay.

NCI-H460 = system: NCI-H460;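 also: cell viability assay scoring growth inhibition of human NCI-H460 cells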
Description: SANGER: Inhibition of human NCI-H460 cell growth in a cell viability assay.

SW1573 = system: SW1573;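 also: growth inhibition of SW1573 cells, read out with a cell viability assay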
Description: SANGER: Inhibition of human SW1573 cell growth in a cell viability assay.

A549 = system: A549;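 also: growth inhibition of A549 cells, read out with a cell viability assay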
Description: SANGER: Inhibition of human A549 cell growth in a cell viability assay.

JEG-3 = system: JEG-3;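 also: growth inhibition of human JEG-3 cells, read out with a cell viability assay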
Description: SANGER: Inhibition of human JEG-3 cell growth in a cell viability assay.

PA-1 = system: PA-1;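 also: IC50 for suppression of PA-1 cell proliferation, determined with a cell viability read-out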
Description: SANGER: Inhibition of human PA-1 cell growth in a cell viability assay.

UO-31 = system: UO-31;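 also: cell viability assay measuring inhibition of cell growth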
Description: SANGER: Inhibition of human U031 cell growth in a cell viability assay.

769-P = system: 769-P
Description: SANGER: Inhibition of human 769-P cell growth in a cell viability assay.

CAL-39 = system: CAL-39;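 also: cell viability assay measuring growth inhibition of CAL-39 cells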
Description: SANGER: Inhibition of human CAL-39 cell growth in a cell viability assay.

FaDu = system: FaDu;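 also: cell viability readout of growth inhibition in FaDu cells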
Description: SANGER: Inhibition of human FADU cell growth in a cell viability assay.

OC-314 = system: OC-314
Description: SANGER: Inhibition of human OC-314 cell growth in a cell viability assay.

MCF7 = system: MCF7;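 also: growth inhibition of human MCF7 cells, read out with a cell viability assay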
Description: SANGER: Inhibition of human MCF7 cell growth in a cell viability assay.

HMV-2 cell line = system: HMV-2 cell line;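 also: growth inhibition of HMV-II cells, read out with a cell viability assay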
Description: SANGER: Inhibition of human HMV-II cell growth in a cell viability assay.

NCI-H2228 = system: NCI-H2228;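 also: growth inhibition of human NCI-H2228 cells, read out by a cell viability assay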
Description: SANGER: Inhibition of human NCI-H2228 cell growth in a cell viability assay.

HuO9 = system: HuO9;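 also: growth inhibition of HuO9 cells, read out with a cell viability assay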
Description: SANGER: Inhibition of human HuO9 cell growth in a cell viability assay.

MG-63 = system: MG-63;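 also: growth inhibition of human MG-63 cells, read out with a cell viability assay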
Description: SANGER: Inhibition of human MG-63 cell growth in a cell viability assay.

NUGC-3 = system: NUGC-3;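 also: growth inhibition of human NUGC-3 cells, read out with a cell viability assay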
Description: SANGER: Inhibition of human NUGC-3 cell growth in a cell viability assay.

NCI-H1792 = system: NCI-H1792;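 also: growth inhibition of human NCI-H1792 cells, read out as cell viability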
Description: SANGER: Inhibition of human NCI-H1792 cell growth in a cell viability assay.

NCI-H2009 = system: NCI-H2009;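 also: cell viability assay measuring inhibition of NCI-H2009 cell growth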
Description: SANGER: Inhibition of human NCI-H2009 cell growth in a cell viability assay.

BFTC-905 = system: BFTC-905
Description: SANGER: Inhibition of human BFTC-905 cell growth in a cell viability assay.

DU-145 = system: DU-145
Description: SANGER: Inhibition of human DU-145 cell growth in a cell viability assay.

A-431 = system: A-431;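 also: growth inhibition of A-431 cells, determined with a cell viability read-out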
Description: SANGER: Inhibition of human A431 cell growth in a cell viability assay.

HOP-92 = system: HOP-92;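 also: cell viability readout, with IC50 reflecting inhibition of HOP-92 cell growth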
Description: SANGER: Inhibition of human HOP-92 cell growth in a cell viability assay.

SK-OV-3 = system: SK-OV-3;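 also: growth inhibition of SK-OV-3 human cells, read out with a cell viability assay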
Description: SANGER: Inhibition of human SK-OV-3 cell growth in a cell viability assay.

IGR-1 = system: IGR-1;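 also: growth inhibition of human IGR-1 cells, read out with a cell viability assay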
Description: SANGER: Inhibition of human IGR-1 cell growth in a cell viability assay.

COLO-741 = system: COLO-741
Description: SANGER: Inhibition of human COLO-741 cell growth in a cell viability assay.

HCC1937 = system: HCC1937;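 also: growth inhibition measured with a cell viability read-out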
Description: SANGER: Inhibition of human HCC1937 cell growth in a cell viability assay.

BEN = conditions: Homo sapiens, BEN;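 also: growth inhibition of the BEN cell line, read out with a cell viability assay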
Description: SANGER: Inhibition of human BEN cell growth in a cell viability assay.

CISPLATIN
IC50 (HCC1419; hcc1419): 29.5 µM
IC50 (MC-IXC; mc-ixc): 1.68 µM
IC50 (RVH-421; rvh-421): 40.6 µM
IC50 (639-V; 639-v): 5.89 µM
IC50 (CAL-120; cal-120): 264 µM
IC50 (MDA-MB-453; mda-mb-453): 25.8 µM
IC50 (TYK-nu; tyk-nu): 15.8 µM
IC50 (SW1990; sw1990): 9.71 µM
IC50 (PANC-03-27; panc-03-27): 38.3 µM
IC50 (KYSE-140; kyse-140): 7.59 µM
IC50 (T-24; t-24): 5.56 µM
IC50 (EGI-1; egi-1): 11.1 µM
IC50 (A2058; a2058): 17.5 µM
IC50 (NCI-H460; nci-h460): 345 µM
IC50 (SW1573; sw1573): 43.3 µM
IC50 (A549; a549): 18.8 µM
IC50 (JEG-3; jeg-3): 10.3 µM
IC50 (PA-1; pa-1): 0.79 µM
IC50 (UO-31; uo-31): 12.9 µM
IC50 (769-P; 769-p): 16.2 µM
IC50 (CAL-39; cal-39): 287 µM
IC50 (FaDu; fadu): 8.92 µM
IC50 (OC-314; oc-314): 14 µM
IC50 (MCF7; mcf7): 15.2 µM
IC50 (HMV-2 cell line; hmv-2): 11.2 µM
IC50 (NCI-H2228; nci-h2228): 8.25 µM
IC50 (HuO9; huo9): 38.7 µM
IC50 (MG-63; mg-63): 100 µM
IC50 (NUGC-3; nugc-3): 2.14 µM
IC50 (NCI-H1792; nci-h1792): 14.9 µM
IC50 (NCI-H2009; nci-h2009): 496 µM
IC50 (BFTC-905; bftc-905): 2.58 µM
IC50 (DU-145; du-145): 11.1 µM
IC50 (A-431; a-431): 572 µM
IC50 (HOP-92; hop-92): 3.51 µM
IC50 (SK-OV-3; sk-ov-3): 614 µM
IC50 (IGR-1; igr-1): 575 µM
IC50 (COLO-741; colo-741): 28.7 µM
IC50 (HCC1937; hcc1937): 137 µM

Cc1cn(-c2cc(NC(=O)c3ccc(C)c(Nc4nccc(-c5cccnc5)n4)c3)cc(C(F)(F)F)c2)cn1 [NILOTINIB]
IC50 (HCC1419; Homo sapiens, HCC1419): > 2 µM
IC50 (MC-IXC; Homo sapiens, MC-IXC): > 2 µM
IC50 (RVH-421; Homo sapiens, RVH-421): > 2 µM
IC50 (639-V; Homo sapiens, 639-V): > 2 µM
IC50 (CAL-120; Homo sapiens, CAL-120): > 2 µM
IC50 (MDA-MB-453; Homo sapiens, MDA-MB-453): > 2 µM
IC50 (TYK-nu; Homo sapiens, TYK-nu): > 2 µM
IC50 (SW1990; Homo sapiens, SW1990): > 2 µM
IC50 (PANC-03-27; Homo sapiens, PANC-03-27): > 2 µM
IC50 (KYSE-140; Homo sapiens, KYSE-140): > 2 µM
IC50 (BEN): > 2 µM
IC50 (T-24; Homo sapiens, T-24): > 2 µM
IC50 (EGI-1; Homo sapiens, EGI-1): > 2 µM
IC50 (A2058; Homo sapiens, A2058): > 2 µM
IC50 (NCI-H460; Homo sapiens, NCI-H460): > 2 µM
IC50 (SW1573; Homo sapiens, SW1573): > 2 µM
IC50 (A549; Homo sapiens, A549): > 2 µM
IC50 (JEG-3; Homo sapiens, JEG-3): > 2 µM
IC50 (PA-1; Homo sapiens, PA-1): > 2 µM
IC50 (UO-31; Homo sapiens, UO-31): > 2 µM
IC50 (769-P; Homo sapiens, 769-P): > 2 µM
IC50 (CAL-39; Homo sapiens, CAL-39): > 2 µM
IC50 (FaDu; Homo sapiens, FaDu): > 2 µM
IC50 (OC-314; Homo sapiens, OC-314): > 2 µM
IC50 (MCF7; Homo sapiens, MCF7): > 2 µM
IC50 (HMV-2 cell line; Homo sapiens, HMV-2): 0.749 µM
IC50 (NCI-H2228; Homo sapiens, NCI-H2228): > 2 µM
IC50 (HuO9; Homo sapiens, HuO9): > 2 µM
IC50 (MG-63; Homo sapiens, MG-63): > 2 µM
IC50 (NUGC-3; Homo sapiens, NUGC-3): > 2 µM
IC50 (NCI-H1792; Homo sapiens, NCI-H1792): > 2 µM
IC50 (NCI-H2009; Homo sapiens, NCI-H2009): > 2 µM
IC50 (BFTC-905; Homo sapiens, BFTC-905): > 2 µM
IC50 (DU-145; Homo sapiens, DU-145): > 2 µM
IC50 (A-431; Homo sapiens, A-431): > 2 µM
IC50 (HOP-92; Homo sapiens, HOP-92): > 2 µM
IC50 (SK-OV-3; Homo sapiens, SK-OV-3): > 2 µM
IC50 (IGR-1; Homo sapiens, IGR-1): > 2 µM
IC50 (COLO-741; Homo sapiens, COLO-741): > 2 µM
IC50 (HCC1937; Homo sapiens, HCC1937): > 2 µM

CC(C)CCN1c2nc(Nc3cc(F)c(O)c(F)c3)ncc2N(C)C(=O)C1C (centres undefined)
IC50 (HCC1419; Homo sapiens, HCC1419): > 5 µM
IC50 (MC-IXC; Homo sapiens, MC-IXC): 0.796 µM
IC50 (RVH-421; Homo sapiens, RVH-421): > 5 µM
IC50 (639-V; Homo sapiens, 639-V): 2.72 µM
IC50 (CAL-120; Homo sapiens, CAL-120): > 5 µM
IC50 (MDA-MB-453; Homo sapiens, MDA-MB-453): > 5 µM
IC50 (TYK-nu; Homo sapiens, TYK-nu): 3.54 µM
IC50 (SW1990; Homo sapiens, SW1990): > 5 µM
IC50 (PANC-03-27; Homo sapiens, PANC-03-27): 4.3 µM
IC50 (KYSE-140; Homo sapiens, KYSE-140): > 5 µM
IC50 (BEN): > 5 µM
IC50 (T-24; Homo sapiens, T-24): > 5 µM
IC50 (EGI-1; Homo sapiens, EGI-1): > 5 µM
IC50 (A2058; Homo sapiens, A2058): > 5 µM
IC50 (NCI-H460; Homo sapiens, NCI-H460): > 5 µM
IC50 (SW1573; Homo sapiens, SW1573): > 5 µM
IC50 (A549; Homo sapiens, A549): 1.31 µM
IC50 (JEG-3; Homo sapiens, JEG-3): 3.69 µM
IC50 (PA-1; Homo sapiens, PA-1): > 5 µM
IC50 (UO-31; Homo sapiens, UO-31): > 5 µM
IC50 (769-P; Homo sapiens, 769-P): > 5 µM
IC50 (CAL-39; Homo sapiens, CAL-39): 4.94 µM
IC50 (FaDu; Homo sapiens, FaDu): > 5 µM
IC50 (OC-314; Homo sapiens, OC-314): > 5 µM
IC50 (MCF7; Homo sapiens, MCF7): > 5 µM
IC50 (HMV-2 cell line; Homo sapiens, HMV-2): 2.17 µM
IC50 (NCI-H2228; Homo sapiens, NCI-H2228): > 5 µM
IC50 (HuO9; Homo sapiens, HuO9): 2.37 µM
IC50 (MG-63; Homo sapiens, MG-63): > 5 µM
IC50 (NUGC-3; Homo sapiens, NUGC-3): > 5 µM
IC50 (NCI-H1792; Homo sapiens, NCI-H1792): 2.74 µM
IC50 (NCI-H2009; Homo sapiens, NCI-H2009): > 5 µM
IC50 (BFTC-905; Homo sapiens, BFTC-905): 1.56 µM
IC50 (DU-145; Homo sapiens, DU-145): 2.11 µM
IC50 (A-431; Homo sapiens, A-431): 4.14 µM
IC50 (HOP-92; Homo sapiens, HOP-92): > 5 µM
IC50 (SK-OV-3; Homo sapiens, SK-OV-3): > 5 µM
IC50 (IGR-1; Homo sapiens, IGR-1): 4.1 µM
IC50 (COLO-741; Homo sapiens, COLO-741): > 5 µM
IC50 (HCC1937; Homo sapiens, HCC1937): > 5 µM
